Test results as given in patent EP1263420B1 (priority 2000, dated 2001).
Where “and” joins values, the source holds several entries; their conditions need not be identical. Equal entries are not always repeated. Entries after “also recorded” stand apart in the source; their conditions may differ.

Experiments:
Format in all cases: in vivo
TGase II [1] = test: TGase II assay of rat lung tissue after inhaled 13-cis RA (experiment B); conditions: for TGase II assay / TGase II assay DPM/µg protein: rat lung
Method: Male rats (n=23) (Sprague-Dawley from Charles River) were divided into six experimental groups and were given varying amounts of 13-cis RA through an inhalant apparatus once daily for different times each day for 14 days. The experimental groups were as follows (Table 1) :1.Vehicle control : rats (3) inhaled vehicle for 240 minutes; 2. Low dose 13-cis RA: rats (4) inhaled a solution containing 13-cis RA at a concentration of 62.2µg/liter (inhaled dose 115.0µg/kg body weight) in 5 minutes; 3. Low-Middle dose 13-cis RA : rats (4) inhaled a solution containing 13-cis RA at a concentration of 62.2µg/liter (inhaled dose 334.4µg/kg body weight) in 15 minutes; 4.Middle dose 13-cis RA: rats (4) inhaled a solution containing 13-cis RA at a concentration of 62.2µg/liter (inhaled dose 1012.3µg/kg body weight) in 45 minutes; 5. Middle-High dose 13-cis RA : rats (4) inhaled a solution containing 13-cis RA at a concentration of 62.2µg/liter (inhaled dose 2843.4µg/kg body weight) in 120 minutes; 6. High dose 13-cis RA : rats (4) inhaled a solution containing 13-cis RA at a concentration of 62.2µg/liter (inhaled dose 5935.6µg/kg body weight) in 240 minutes. […]
(§1) Enzyme assay mixtures were prepared by adding 80µl of SUBSTRATE mixture (322.8µl H2O, 120µl 0.5M NaBorate, 60µl 0.01M EDTA, 60µl 0.1M CaCl2, 6µl 1M DTT, 240µl dimethyl casein, 30µl Triton X-100, 1.2µl [^3H]-Putrescine, 120µl Putrescine) to 20µl sample, 20µl scraping buffer for blank control , 20 µl (18µl scraping buffer + 2µl TGase II) for positive control. Samples were mixed in 15ml tubes, the tubes were shaken before putting them into a 28°C water bath for 30 minutes. Reactions were slowed down in an ice bath. 80µl of the incubation mixture was adsorbed onto paper disks. These were immediately dropped into cold 10% TCA (0.1% Putrescine) and washed with agitation for 7 minutes, followed by 2 additional washes with 5% TCA (0.05% putrescine) for 5~7 minutes, and once more with cold (-20°C) 95% ethanol for 5 minutes. Paper disks were dried and placed into 5ml Aquasol, and counted in a Liquid Scintillation Counter. Protein concentration determination was conducted by the Bradford method.

TGase II [2] = test: TGase II assay of rat liver tissue after inhaled 13-cis RA (experiment B); conditions: for TGase II assay / TGase II assay DPM/µg protein: rat liver
Method: Male rats (n=23) (Sprague-Dawley from Charles River) were divided into six experimental groups and were given varying amounts of 13-cis RA through an inhalant apparatus once daily for different times each day for 14 days. The experimental groups were as follows (Table 1) :1.Vehicle control : rats (3) inhaled vehicle for 240 minutes; 2. Low dose 13-cis RA: rats (4) inhaled a solution containing 13-cis RA at a concentration of 62.2µg/liter (inhaled dose 115.0µg/kg body weight) in 5 minutes; 3. Low-Middle dose 13-cis RA : rats (4) inhaled a solution containing 13-cis RA at a concentration of 62.2µg/liter (inhaled dose 334.4µg/kg body weight) in 15 minutes; 4.Middle dose 13-cis RA: rats (4) inhaled a solution containing 13-cis RA at a concentration of 62.2µg/liter (inhaled dose 1012.3µg/kg body weight) in 45 minutes; 5. Middle-High dose 13-cis RA : rats (4) inhaled a solution containing 13-cis RA at a concentration of 62.2µg/liter (inhaled dose 2843.4µg/kg body weight) in 120 minutes; 6. High dose 13-cis RA : rats (4) inhaled a solution containing 13-cis RA at a concentration of 62.2µg/liter (inhaled dose 5935.6µg/kg body weight) in 240 minutes.
For liver tissue, a piece of approximately 100-400mg was used. Tissue was diced in small pieces and homogenized in approximately 2 volumes of scraping buffer for 2-3 minutes at 4°C. Samples were centrifuged at 14,000xg for 30 minutes at 4°C. The supernatant was removed and kept in ice until used.
as §1

Lung Tumorigenesis = test: Lung tumorigenesis inhibition by inhaled isotretinoin in carcinogen-treated A/J mice; conditions: for reductions of tumor multiplicity (non-significant): low dose; for reductions in multiplicity of tumor nodules: mid isotretinoin dose
Excerpt: The A/J mouse is a well-established animal model for preclinical chemoprevention studies. This strain has a hereditary predisposition for lung cancer, the so-called pulmonary adenoma susceptibility (Pas) genes. A strong candidate for one of these genes, Pas-1, is the K-ras protooncogene. Carcinogenesis in this model with NNK as the inciting agent has been studied so that the times required to develop hyperplastic areas, adenomas, and carcinomas are well known. In addition, the timing of molecular changes associated with carcinogenesis has been studied and are similar to those in humans. In both species, K-ras mutations are common early events.
Within 24 h of the last inhalation exposure, animals were euthanized by intraperitoneal injection of pentobarbital and their lungs were removed and fixed in Bouin's solution or flash frozen for RAR determination. The lungs were evaluated in a blinded fashion so that neither carcinogen nor isotretinoin dose levels were known to the evaluator, who visually counted hyperplastic areas and adenomas on the lung pleural surface as previously described The significance of the differences between the mean tumor incidence of the treatment and the control groups was determined using the Mann-Whitney Rank Sum test (Statmost TM, DataMost Corp., Sandy, Utah).

[3] = High: 240 minutes daily 14 Days, 1872µg/kg total deposited dose
[4] = Low-Middle: 15 minutes daily 14 Days, 117µg/kg total deposited dose
[5] = Low: 5 minutes daily 14 Days, 39µg/kg total deposited dose
[6] = Middle-High: 120 minutes daily 14 Days, 936µg/kg total deposited dose
[7] = Middle: 45 minutes daily 14 Days, 351µg/kg total deposited dose

With `CC1=C(/C=C/C(C)=C/C=C/C(C)=C\C(=O)O)C(C)(C)CCC1` [13-cis RA, 13-cis-Retinoic Acid] the “stimulation of lung TGase II activity” value (TGase II [1]; maximum, inhaled dose of 1012.3µg/kg, 45 minutes of inhalation, 14 days) was 2.9 Fold, the “TGase II assay” value (TGase II [1]; [3]) was 0.1025 +/- 0.004 picomoles/µg protein/30 min and 0.1025 ± 0.004 picomoles/µg protein/30 min and the “TGase II assay DPM/µg protein” value (TGase II [1]; [3]) was 8053 DPM/µg protein. The “TGase II assay” value (TGase II [1]; [4]) was 0.1150 +/- 0.006 picomoles/µg protein/30 min and 0.1150 ± 0.006 picomoles/µg protein/30 min, the “TGase II assay DPM/µg protein” value (TGase II [1]; [4]) was 9035 DPM/µg protein and the “TGase II assay DPM/µg protein” value (TGase II [1]; [5]) was 7503 DPM/µg protein. For the same molecule, the “TGase II assay” value (TGase II [1]; Low: 5 minutes daily 14 Days, 39µg/kg total deposited dose, vehicle 0.0450) was 0.0955 +/- 0.004 picomoles/µg protein/30 min and 0.0955 ± 0.004 picomoles/µg protein/30 min, the “TGase II assay” value (TGase II [1]; [6]) was 0.1020 +/- 0.005 picomoles/µg protein/30 min and 0.1020 ± 0.005 picomoles/µg protein/30 min and the “TGase II assay DPM/µg protein” value (TGase II [1]; [6]) was 8014 DPM/µg protein. The “TGase II assay” value (TGase II [1]; [7]) was 0.1330 +/- 0.009 picomoles/µg protein/30 min, the “TGase II assay DPM/µg protein” value (TGase II [1]; [7]) was 10449 DPM/µg protein and the “stimulation of lung TGase II activity” value (TGase II [1]; with larger amounts of inhaled retinoid) was 1.2 fold. For the same molecule, the “effect on liver TGase II activity” value (TGase II [2]; inhaled, up to 5.93mg/kg of inhaled dose) was “no significant effect”, the “TGase II assay” value (TGase II [2]; [3]) was 0.271 +/- 0.015 picomoles/µg protein/30 min and 0.271 ± 0.015 picomoles/µg protein/30 min and the “TGase II assay DPM/µg protein” value (TGase II [2]; [3]) was 19719 DPM/µg protein. For the same molecule, the “TGase II assay” value (TGase II [2]; [4]) was 0.273 +/- 0.018 picomoles/µg protein/30 min and 0.273 ± 0.018 picomoles/µg protein/30 min, the “TGase II assay DPM/µg protein” value (TGase II [2]; [4]) was 21448 DPM/µg protein and the “TGase II assay DPM/µg protein” value (TGase II [2]; [5]) was 22705 DPM/µg protein. The “TGase II assay” value (TGase II [2]; Low: 5 minutes daily 14 Days, 39µg/kg total deposited dose, vehicle 0.260) was 0.289 +/- 0.007 picomoles/µg protein/30 min and 0.289 ± 0.007 picomoles/µg protein/30 min, the “TGase II assay” value (TGase II [2]; [6]) was 0.269 +/- 0.015 picomoles/µg protein/30 min and 0.269 ± 0.015 picomoles/µg protein/30 min and the “TGase II assay DPM/µg protein” value (TGase II [2]; [6]) was 20348 DPM/µg protein. For the same molecule, the “TGase II assay” value (TGase II [2]; [7]) was 0.313 +/- 0.025 picomoles/µg protein/30 min and 0.313 ± 0.025 picomoles/µg protein/30 min, the “TGase II assay DPM/µg protein” value (TGase II [2]; [7]) was 24590 DPM/µg protein and the “reductions of tumor multiplicity (non-significant)” value (Lung Tumorigenesis; BaP treated mice, p<0.13) was 30%. For the same molecule, the “reductions of tumor multiplicity (non-significant)” value (Lung Tumorigenesis; NNK treated mice, p<0.30) was 16%, the “effect on numbers of tumors” value (Lung Tumorigenesis; low isotretinoin dose) was “not affected by treatment at the 95% confidence level; also recorded: not significantly effective” and the “reductions in multiplicity of tumor nodules” value (Lung Tumorigenesis; BaP-treated mice) was 67%. The “reductions in multiplicity of tumor nodules” value (Lung Tumorigenesis; NNK-treated mice) was 88%.
